Experimental data taken from patent publication US20240041042A1, “1-(PYRIDYL)-5-AZINYLPYRAZOLE DERIVATIVES, AND THEIR USE FOR CONTROL OF UNDESIRED PLANT GROWTH” (Bayer Aktiengesellschaft, priority 2020, published 2024).
Like-named read-outs stand apart in the source and are kept apart here.

Key:
Type in all cases: in vivo
[1] = test system: Matricaria inodora (MATIN); experiment: Post-emergence herbicidal action against MATIN
Method in brief: (§1)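 Rates were 320 g/ha or below, applied as aqueous WP/EC spray with 0.5% additive (600 l/ha) onto one-leaf-stage plants. About 3 weeks later in the greenhouse, damage was scored visually against untreated plants on a 0–100% scale, where 100% means plants died.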

[2] = test system: Digitaria sanguinalis (DIGSA); experiment: Post-emergence herbicidal action against DIGSA; conditions: visual rating about 3 weeks after treatment
Method in brief: as §1

[3] = test system: Setaria viridis (SETVI); experiment: Post-emergence herbicidal action against SETVI
Method in brief: as §1

[4] = test system: Digitaria sanguinalis (DIGSA); experiment: Pre-emergence herbicidal action against DIGSA
Text: Seeds of monocotyledonous and dicotyledonous weed plants and crop plants are placed in plastic or organic planting pots and covered with soil. The compounds of the invention, formulated in the form of wettable powders (WP) or as emulsion concentrates (EC), are then applied to the surface of the covering soil as aqueous suspension or emulsion with addition of 0.5% additive at a water application rate equivalent to 600 l/ha. After the treatment, the pots are placed in a greenhouse and kept under good growth conditions for the trial plants. After about 3 weeks, the effect of the preparations is scored visually in comparison with untreated controls as percentages. For example, 100% activity=the plants have died, 0% activity=like control plants.
Tables A1 to A13 below show the effects of selected compounds of the general formula (I) on various harmful plants and at an application rate corresponding to 320 g/ha or lower, which were obtained by the experimental procedure mentioned above. The appendices “a”, “b” and “c” give differentiation by dosage used with otherwise the same harmful plants tested.

[5] = test system: Avena fatua (AVEFA); experiment: Pre-emergence herbicidal action against AVEFA; conditions: 320 g/ha, visual scoring after about 3 weeks vs untreated controls
Method in brief: (§2)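 Application rates ran to 320 g/ha or lower, with several dosages tested on the same weeds. The compound, as wettable powder or emulsion concentrate, is sprayed pre-emergence onto soil over sown seeds; greenhouse growth follows, and effect is rated visually after roughly 3 weeks.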

[6] = test system: Oryza sativa (ORYSA); conditions: crop plant compatibility
Method in brief: (§3)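 Percent effect on the crop was judged by eye against untreated controls, where 0% means like control and 100% means dead plants. Plants had been sprayed post-emergence at the one-leaf stage and then kept under optimum greenhouse conditions for about 3 weeks.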

[7] = test system: Zea mays (ZEAMX)
Method in brief: as §3

[8] = test system: Matricaria inodora (MATIN); experiment: Pre-emergence herbicidal action against MATIN
Method in brief: as §2

[9] = test system: Alopecurus myosuroides (ALOMY); experiment: Post-emergence herbicidal action against ALOMY; conditions: visual rating about 3 weeks after treatment vs untreated controls (100% = plants have died, 0% = like control plants)
Method in brief: as §1

[10] = test system: Polygonum convolvulus (POLCO); experiment: Pre-emergence herbicidal action against POLCO
Method in brief: as §2

[11] = test system: Echinochloa crus-galli (ECHCG); experiment: Post-emergence herbicidal action against ECHCG
Method in brief: as §1

[12] = test system: Amaranthus retroflexus (AMARE); experiment: Pre-emergence herbicidal action against AMARE; conditions: visual scoring after about 3 weeks vs untreated controls
Method in brief: as §2

[13] = test system: Lolium rigidum (LOLRI); experiment: Pre-emergence herbicidal action against LOLRI
Method in brief: as §2

[14] = test system: Verconica persica (VERPE); experiment: Pre-emergence herbicidal action against VERPE; conditions: dosage 320 g/ha
Method in brief: as §2

[15] = test system: Echinochloa crus-galli (ECHCG); experiment: Pre-emergence herbicidal action against ECHCG
Method in brief: as §2

[16] = test system: Avena fatua (AVEFA); experiment: Post-emergence herbicidal action against AVEFA; conditions: visual rating about 3 weeks after treatment
Method in brief: as §1

[17] = test system: Alopecurus myosuroides (ALOMY); experiment: Pre-emergence herbicidal action against ALOMY; conditions: scored visually after about 3 weeks, 100% = plants have died
Method in brief: as §2

[18] = test system: Viola tricolor (VIOTR); experiment: Pre-emergence herbicidal action against VIOTR
Method in brief: as §2

[19] = test system: Setaria viridis (SETVI); experiment: Pre-emergence herbicidal action against SETVI
Method in brief: as §2

[20] = test system: Verconica persica (VERPE); experiment: Post-emergence herbicidal action against VERPE
Method in brief: as §1

[21] = test system: Abutilon theophrasti (ABUTH); experiment: Post-emergence herbicidal action against ABUTH; conditions: 320 g/ha, visual rating about 3 weeks after treatment vs untreated controls (100% = plants have died, 0% = like control plants)
Method in brief: as §1

[22] = test system: Pharbitis purpurea (PHBPU); experiment: Post-emergence herbicidal action against PHBPU
Method in brief: as §1

[23] = test system: Polygonum convolvulus (POLCO); experiment: Post-emergence herbicidal action against POLCO
Method in brief: as §1

[24] = test system: Amaranthus retroflexus (AMARE); experiment: Post-emergence herbicidal action against AMARE
Method in brief: as §1

[25] = test system: Lolium rigidum (LOLRI); experiment: Post-emergence herbicidal action against LOLRI; conditions: dosage 320 g/ha
Method in brief: as §1

[26] = test system: Viola tricolor (VIOTR); experiment: Post-emergence herbicidal action against VIOTR
Method in brief: as §1

[27] = test system: Pharbitis purpurea (PHBPU); experiment: Pre-emergence herbicidal action against PHBPU
Method in brief: as §2

[28] = 80 g/ha, visual scoring after about 3 weeks vs untreated controls
[29] = 80 g/ha, effect in comparison to untreated controls

COCCOC(=O)COc1nn(-c2ncccc2F)c(-c2ccc(F)nc2)c1Br [Example I-29]
20%: Post-emergence action against ORYSA in % [6, 29] | Post-emergence action against ZEAMX in % ([7]; crop plant compatibility, 80 g/ha, effect vs untreated controls)
10%: Post-emergence action against ORYSA in % ([6]; 20 g/ha, effect vs untreated controls) | Post-emergence action against ZEAMX in % (crop plant compatibility) ([7]; 20 g/ha, ZEAMX, effect in comparison to untreated controls)
100%: Pre-emergence action against DIGSA in % [4, 28] | Pre-emergence action against DIGSA in % ([4]; dosage 320 g/ha) | Pre-emergence action against MATIN in % ([8]; dosage 320 g/ha) | Post-emergence action against ALOMY in % ([9]; 80 g/ha) | Pre-emergence action against AMARE in % ([12]; 320 g/ha) | Pre-emergence action against LOLRI in % ([13]; dosage 320 g/ha) | Pre-emergence action against ECHCG in % ([15]; dosage 320 g/ha) | Pre-emergence action against ALOMY ([17]; 320 g/ha) | Pre-emergence action against VIOTR in % ([18]; 320 g/ha, Viola tricolor) | Pre-emergence action against SETVI in % ([19]; dosage 320 g/ha)
80%: Post-emergence action against SETVI in % ([3]; dosage 80 g/ha) | Post-emergence action against ECHCG in % ([11]; dosage 80 g/ha) | Post-emergence action against AVEFA in % ([16]; 80 g/ha) | Post-emergence action against VERPE in % ([20]; dosage 80 g/ha)
90%: Post-emergence action against MATIN in % ([1]; dosage 80 g/ha) | Post-emergence action against DIGSA in % ([2]; 80 g/ha) | Pre-emergence action against AVEFA in % [5] | Pre-emergence action against POLCO in % ([10]; dosage 320 g/ha) | Pre-emergence action against AMARE in % ([12]; 80 g/ha) | Pre-emergence action against VERPE in % [14] | Pre-emergence action against ALOMY ([17]; 80 g/ha) | Pre-emergence action against VIOTR in % ([18]; dosage 80 g/ha) | Pre-emergence action against SETVI in % ([19]; dosage 80 g/ha)

O=C(O)COc1nn(-c2ccccn2)c(-c2cncnc2)c1Br [Example I-66]
90%: Post-emergence action against MATIN in % ([1]; dosage 320 g/ha) | Post-emergence action against DIGSA in % ([2]; 320 g/ha) | Post-emergence action against SETVI in % ([3]; dosage 320 g/ha) | Post-emergence action against POLCO in % ([23]; dosage 320 g/ha) | Pre-emergence action against AVEFA in % [5] | Post-emergence action against AMARE in % ([24]; 320 g/ha, visual rating about 3 weeks after treatment) | Pre-emergence action against MATIN in % ([8]; dosage 320 g/ha) | Pre-emergence action against POLCO in % ([10]; dosage 80 g/ha) | Pre-emergence action against POLCO in % ([10]; dosage 320 g/ha) | Post-emergence action against ECHCG in % ([11]; dosage 320 g/ha) | Pre-emergence action against AMARE in % ([12]; 80 g/ha) | Pre-emergence action against VIOTR in % ([18]; dosage 80 g/ha) | Post-emergence action against LOLRI in % [25] | Post-emergence action against VIOTR in % ([26]; 320 g/ha) | Post-emergence action against VERPE in % ([20]; 320 g/ha, VERPE) | Post-emergence action against VERPE in % ([20]; dosage 80 g/ha)
80%: Post-emergence action against MATIN in % ([1]; dosage 80 g/ha) | Post-emergence action against SETVI in % ([3]; dosage 80 g/ha) | Post-emergence action against ABUTH in % [21] | Post-emergence action against PHBPU in % ([22]; dosage 320 g/ha) | Post-emergence action against POLCO in % ([23]; dosage 80 g/ha) | Post-emergence action against AMARE in % ([24]; 80 g/ha, visual rating about 3 weeks after treatment vs untreated controls (100% = plants have died, 0% = like control plants)) | Post-emergence action against ECHCG in % ([11]; dosage 80 g/ha) | Pre-emergence action against LOLRI in % ([13]; dosage 80 g/ha) | Pre-emergence action against ECHCG in % ([15]; dosage 80 g/ha) | Post-emergence action against VIOTR in % ([26]; 80 g/ha)
10%: Post-emergence action against ORYSA in % [6, 29]
20%: Post-emergence action against ORYSA in % ([6]; 320 g/ha, effect in comparison to untreated controls)
100%: Pre-emergence action against DIGSA in % [4, 28] | Pre-emergence action against DIGSA in % ([4]; dosage 320 g/ha) | Post-emergence action against ALOMY in % ([9]; 80 g/ha) | Post-emergence action against ALOMY in % ([9]; 320 g/ha) | Pre-emergence action against AMARE in % ([12]; 320 g/ha) | Pre-emergence action against LOLRI in % ([13]; dosage 320 g/ha) | Pre-emergence action against VERPE in % [14] | Pre-emergence action against ECHCG in % ([15]; dosage 320 g/ha) | Post-emergence action against AVEFA in % ([16]; 320 g/ha) | Pre-emergence action against ALOMY ([17]; 80 g/ha) | Pre-emergence action against ALOMY ([17]; 320 g/ha) | Pre-emergence action against VIOTR in % ([18]; 320 g/ha, Viola tricolor) | Pre-emergence action against SETVI in % ([19]; dosage 80 g/ha) | Pre-emergence action against SETVI in % ([19]; dosage 320 g/ha)

COC(=O)COc1nn(-c2nc(F)ccc2F)c(-c2cncc(F)c2)c1Cl [Example I-216]
10%: Post-emergence action against ORYSA in % [6, 29]
80%: Post-emergence action against MATIN in % ([1]; dosage 80 g/ha) | Post-emergence action against MATIN in % ([1]; dosage 320 g/ha) | Post-emergence action against DIGSA in % ([2]; 80 g/ha) | Post-emergence action against DIGSA in % ([2]; 320 g/ha) | Post-emergence action against SETVI in % ([3]; dosage 320 g/ha) | Post-emergence action against ABUTH in % [21] | Post-emergence action against PHBPU in % ([22]; dosage 80 g/ha) | Post-emergence action against PHBPU in % ([22]; dosage 320 g/ha) | Post-emergence action against ECHCG in % ([11]; dosage 80 g/ha) | Post-emergence action against ECHCG in % ([11]; dosage 320 g/ha) | Pre-emergence action against LOLRI in % ([13]; dosage 320 g/ha) | Pre-emergence action against ECHCG in % ([15]; dosage 80 g/ha) | Post-emergence action against AVEFA in % ([16]; 320 g/ha) | Pre-emergence action against SETVI in % ([19]; dosage 80 g/ha) | Post-emergence action against VIOTR in % ([26]; 80 g/ha) | Post-emergence action against VIOTR in % ([26]; 320 g/ha)
100%: Pre-emergence action against DIGSA in % ([4]; dosage 320 g/ha) | Pre-emergence action against ECHCG in % ([15]; dosage 320 g/ha) | Pre-emergence action against VIOTR in % ([18]; 320 g/ha, Viola tricolor) | Pre-emergence action against VIOTR in % ([18]; dosage 80 g/ha) | Pre-emergence action against SETVI in % ([19]; dosage 320 g/ha)
90%: Pre-emergence action against DIGSA in % [4, 28] | Pre-emergence action against PHBPU in % ([27]; dosage 80 g/ha) | Pre-emergence action against PHBPU in % ([27]; dosage 320 g/ha) | Pre-emergence action against MATIN in % ([8]; dosage 80 g/ha) | Pre-emergence action against MATIN in % ([8]; dosage 320 g/ha) | Pre-emergence action against POLCO in % ([10]; dosage 80 g/ha) | Pre-emergence action against POLCO in % ([10]; dosage 320 g/ha) | Pre-emergence action against AMARE in % ([12]; 80 g/ha) | Pre-emergence action against AMARE in % ([12]; 320 g/ha) | Pre-emergence action against VERPE in % [14] | Pre-emergence action against ALOMY ([17]; 320 g/ha)
